Data from patent US20080262228A1, “Metabolites of 5-fluoro-8- quinoline and methods of preparation and uses thereof” (Wyeth, priority 2006, published 2008).
Structures can show the parent of a compound that is named as a salt.

What was measured:
[1] = In vivo metabolism and excretion of [14C]COMPOUND I in male beagle dogs, single oral 3 mg/kg dose; parameters: species or system dog; conditions: 3 mg/kg oral
Description: Dose preparation, animal dosing, and specimen collection were performed at Wyeth Research, Collegeville, Pa. The vehicle contained 2% (w/v) polysorbate 80, NF and 0.5% (w/v) methylcellulose (4000 cps) in water. [^14C]COMPOUND I trisuccinate salt (50.25 mg) and non-labeled COMPOUND I trisuccinate salt (331.9 mg) were suspended in 72 mL of the vehicle by grinding with a mortar and a pestle. The target [^14C]COMPOUND I concentration was approximately 3 mg/mL as free base and 48 μCi/mL with a target specific activity of 16 μCi/mg. Three pre- and post-dose aliquots (100 μL) were taken for the determination of radiochemical purity, drug and radioactivity concentrations and specific activity (see below).
Four male beagle dogs, weighing from 9.4 to 11.5 kg at the time of dosing, were from an in-house colony. Non-fasted dogs were given a single 3 mg/kg (approximately 48 μCi/kg) dose of [^14C]COMPOUND I at a volume of 1 mL/kg via intragastric gavage. Animals were provided Purina dog chow and water ad libitum, and were housed individually in metabolic cages.
Blood samples were collected from the jugular vein at 1, 4, 8, 24, 48, 72 and 120 hr after dose administration into tubes containing potassium EDTA as the anticoagulant and then placed on ice. Aliquots of 200 μL were removed and plasma was harvested immediately from the remaining blood by centrifugation at 4° C. Urine samples were collected into tubes on dry ice from 0-24 and 24-48 hr, and then at ambient temperature at 24 hr intervals for 7 days post-dose. Fecal samples were collected at 24 hr intervals for 7 days post-dose at room temperature. Cage rinses were collected daily by rinsing each cage with approximately 500 mL of 30% ethanol in water. The dose aliquots and biological specimens were stored at approximately −70° C. until analysis.
Triplicate aliquots of diluted dose (20 μL), dose fractions (10 μL) and plasma (50 μL), urine (200 μL) and cage wash (500 μL) from individual dogs were analyzed for radioactivity content. The samples were assayed in a Tri-Carb Model 3100TR liquid scintillation counter (Perkin Elmer) using 5 mL of Ultima Gold scintillation cocktail.
Fecal samples from individual dogs were weighed and homogenized in water at a volume-to-weight ratio of about 4:1 with a Silverson sealed-unit homogenizer at ambient temperature. Triplicate aliquots of whole blood (50 μL) and fecal homogenates (approximately 0.2 g) were placed into Combusto-cones with Combusto-pads and allowed to dry overnight. Samples were combusted with a model 307 Tri-Carb Sample Oxidizer, equipped with an Oximate-80 Robotic Automatic Sampler (Perkin Elmer). The liberated ^14CO2 was trapped with Carbo-Sorb® E carbon dioxide absorber, mixed with PermaFluor® E+liquid scintillation cocktail, and counted in a Tri-Carb Model 3100 TR/LL liquid scintillation counter.
Plasma samples were pooled by mixing equal volumes from four animals at each time point (1, 4, 8 and 24 hr). Aliquots of 2.0 mL of pooled plasma were mixed with 2.0 mL of acetonitrile, placed on ice for about 10 min, and then centrifuged at 4° C. The supernatant was transferred to a clean tube. The protein pellets were extracted two more times with 2.0 mL of acetonitrile. The supernatants from precipitation and extraction of each sample were pooled, mixed, and evaporated at 22° C. under nitrogen in a TurboVap LV evaporator (Caliper Life Sciences, Hopkinton, Mass.) to about 0.8 mL. The concentrated extract was centrifuged, the supernatant volume measured and the extraction efficiency was determined by analyzing duplicate 10 μL aliquots for radioactivity concentrations. For metabolite profiling, an aliquot of the supernatant (200 μL) was injected onto the HPLC column as described hereinbelow, and fractions were collected at 20 second intervals into 96-well Lumaplates (Perkin Elmer).

[2] = Metabolite characterization in cryopreserved hepatocytes; conditions: hepatocyte incubations, 20 μM; R, rat; D, dog; H, human; Media = decomposition product observed in media control
Description: Pooled male rat, dog, and mixed male and female human cryopreserved hepatocytes were used in this study. The cryopreserved hepatocytes (two vials from each species; three to five million viable cells per vial) were thawed in a 37° C. water bath with gentle shaking until the ice was almost melted. The suspensions from the two individual vials of the same species were immediately transferred to a 50 mL centrifuge tube containing pre-warmed thawing media at 37° C. with gentle handshaking to prevent the cells from settling. The cell suspension was centrifuged at 50 g for 5 min at 4° C. Supernatants were discarded and the pellets were resuspended in pre-warmed incubation media (8 mL) at 37° C. […] [^14C]COMPOUND I (20 μM) was incubated in a 12-well plate containing hepatocyte suspensions at 1.0 mL per well in duplicate (≧1 million viable cells/well) at 37° C. for 1 or 4 hr in the presence of 5% CO2:95% O2. Control incubations without hepatocytes were also run under the same conditions. Positive controls containing [^14C]7-ethoxycoumarin (100 μM) were also incubated under the same conditions, but only for 1 hr. At the end of the incubations, reactions were stopped by adding acetonitrile with 2% acetic acid (1 mL), mixed for 10 min, followed by centrifugation at 4000 rpm for 10 min at 4° C. Aliquots (50 μL) of supernatants were analyzed by HPLC with UV and radioactivity flow detection for metabolite profiling, and by LC/MS for metabolite identification as described in below. To determine extraction recovery, aliquots (20 μL) of supernatants were analyzed for radioactivity content utilizing a Packard Tri-Carb Model 3100 TR liquid scintillation counter and 5 mL of Ultima Gold.
The HPLC system used for mass spectrometric analysis was a Waters Alliance model 2695 HPLC system (Waters Corp). It was equipped with a built-in autosampler and a model 996 diode array UV detector. The UV detector was set to monitor 210-400 nm. The HPLC conditions were the same as those described hereinabove with the following exceptions. […]

Source ([1]; P, plasma, F, feces): P, F
percent of total fecal radioactivity ([1]; pooled 0-24 hr fecal sample): 79.3%
percent of total fecal radioactivity ([1]; pooled 24-48 hr fecal sample): 60.9%
Source [2]: R (trace), D, H
Structure (SMILES): Oc1cc(N2CCN(C3CCN(c4ccc(F)c5cccnc45)CC3)CC2)c2ncccc2c1 [Metabolite M21, 8-{4-[1-(5-fluoroquinolin-8-yl)piperidin-4-yl]piperazin-1-yl}quinolin-6-ol trihydrochloride]
